System: Monocotyledonous and dicotyledonous test plants
Experiment: Example B1 herbicidal action, application pre-emergence (Table B1b)
Format: in vivo
Conditions: 250 g/ha, evaluated after 4 weeks
Method: Monocotyledonous and dicotyledonous test plants were sown in seed trays in standard soil. Immediately after sowing (pre-emergence) or after 8 to 9 days cultivation (post-emergence), the test compounds were applied by spraying in the form of an aqueous solution derived from the formulation of the technical active ingredient in 0.6 ml acetone and 45 ml formulation solution containing 10.6% Emulsogen EL (CAS RN 61791-12-6), 42.2% N-methylpyrrolidone, 42.2% dipropylene glycol monomethyl ether (CAS RN 34590-94-8) and 0.2% X-77 (CAS RN 11097-66-8). The test plants were then grown in a greenhouse under optimum conditions. After a test duration of 3 weeks (post-emergence) or 4 weeks (pre-emergence), the test was evaluated (10=total damage to plant, 0=no damage to plant).

With `CC(=O)O/C(C)=C(/c1c(F)cccc1F)S(=O)(=O)C1=NOC(C)(C)C1` [Compound No. 1.98, acetic acid 2-(2,6-difluoro-phenyl)-2-(5,5-dimethyl-4,5-dihydroisoxazole-3-sulfonyl)-1-methyl-vinyl ester] the “herbicidal action (damage rating 0-10), Amaranthus” value (shortened to “herbicidal action … Amaranthus”) was 7, the “herbicidal action (damage rating 0-10), Digitaria” value (shortened to “herbicidal action … Digitaria”) was 8 and the “herbicidal action (damage rating 0-10), Panicum” value (from here on “herbicidal action … Panicum”) was 9. For the same compound, the “herbicidal action (damage rating 0-10), Setaria” value (“herbicidal action … Setaria” below) was 9 and the “herbicidal action (damage rating 0-10), Sida” value (shortened to “herbicidal action … Sida”) was 4.

In the case of `COc1c(C(F)(F)S(=O)(=O)C2=NOC(C)(C)C2)c(C(F)(F)F)nn1C` [Compound No. 2.23, 3-[difluoro-(5-methoxy-1-methyl-3-trifluoromethyl-1H-pyrazol-4-yl)-methanesulfonyl]-5,5-dimethyl-4,5-dihydroisoxazole], the “herbicidal action … Amaranthus” value is reported as 8, the “herbicidal action … Digitaria” value is reported as 7 and the “herbicidal action … Panicum” value is reported as 8. The “herbicidal action … Setaria” value was 9 and the “herbicidal action … Sida” value was 3.

With `Cn1nc(C(F)(F)F)c(C(C(=O)C(F)F)S(=O)(=O)C2=NOC(C)(C)C2)c1OCC(F)(F)F` (stereo not shown) [2.06] the “herbicidal action … Amaranthus” value was 7, the “herbicidal action … Digitaria” value was 8 and the “herbicidal action … Panicum” value was 8. For the same compound, the “herbicidal action … Setaria” value was 7 and the “herbicidal action … Sida” value was 3.

`Cc1cc(C(F)(Cl)S(=O)(=O)C2=NOC(C)(C)C2)no1` (stereo not shown) [4.01] was tested, and the “herbicidal action … Amaranthus” value was 8, the “herbicidal action … Digitaria” value was 8 and the “herbicidal action … Panicum” value was 8. For the same compound, the “herbicidal action … Setaria” value was 8 and the “herbicidal action … Sida” value was 8.

For `CC1(C)CC(S(=O)(=O)C(Br)c2ccccc2F)=NO1` (racemic) [1.82], the “herbicidal action … Amaranthus” value was 10, the “herbicidal action … Digitaria” value was 9 and the “herbicidal action … Panicum” value was 10. For the same compound, the “herbicidal action … Setaria” value was 9 and the “herbicidal action … Sida” value was 0.

`CC1(C)CC(S(=O)(=O)C(Cn2cncn2)c2c(F)cccc2F)=NO1` (racemic) [Compound No. 1.90] was tested, and the “herbicidal action … Amaranthus” value was 4, the “herbicidal action … Digitaria” value was 4 and the “herbicidal action … Panicum” value was 0. For the same compound, the “herbicidal action … Setaria” value was 0 and the “herbicidal action … Sida” value was 5.

In the case of `COc1cc(C(Cl)S(=O)(=O)C2=NOC(C)(C)C2)on1` (stereo not shown) [Compound No. 5.01, 5-[chloro-(5,5-dimethyl-4,5-dihydroisoxazole-3-sulfonyl)-methyl]-3-methoxy-isoxazole], the “herbicidal action … Amaranthus” value is reported as 0, the “herbicidal action … Digitaria” value is reported as 8 and the “herbicidal action … Setaria” value is reported as 8. For the same compound, the “herbicidal action … Sida” value was 2.

`CC1(C)CC(S(=O)(=O)C(C(=O)C2CC2)c2c(F)cccc2F)=NO1` (stereo not shown) [Compound No. 1.54] was tested, and the “herbicidal action … Amaranthus” value was 0, the “herbicidal action … Digitaria” value was 8 and the “herbicidal action … Panicum” value was 8. For the same compound, the “herbicidal action … Setaria” value was 8 and the “herbicidal action … Sida” value was 0.

For `Cc1noc(C)c1C(Cl)S(=O)(=O)C1=NOC(C)(C)C1` (stereo not shown) [Compound No. 3.03], the “herbicidal action … Amaranthus” value was 7, the “herbicidal action … Digitaria” value was 9 and the “herbicidal action … Panicum” value was 10. The “herbicidal action … Setaria” value was 10 and the “herbicidal action … Sida” value was 0.

With `CC1(C)CC([S+]([O-])C(c2c(F)cccc2F)C(F)(F)F)=NO1` (stereo not shown) [1.139] the “herbicidal action … Amaranthus” value was 0, the “herbicidal action … Digitaria” value was 8 and the “herbicidal action … Panicum” value was 0. For the same compound, the “herbicidal action … Setaria” value was 7 and the “herbicidal action … Sida” value was 0.

With `CC1(C)CC(S(=O)(=O)C(C(=O)C(F)F)c2c(F)cccc2F)=NO1` (stereo not shown) [Compound No. 1.57] the “herbicidal action … Amaranthus” value was 9, the “herbicidal action … Digitaria” value was 8 and the “herbicidal action … Panicum” value was 10. The “herbicidal action … Setaria” value was 8 and the “herbicidal action … Sida” value was 6.

With `COc1cc(OC)cc(C(Br)S(=O)(=O)C2=NOC(C)(C)C2)c1` (racemic) [1.84] the “herbicidal action … Amaranthus” value was 10, the “herbicidal action … Digitaria” value was 9 and the “herbicidal action … Panicum” value was 10. The “herbicidal action … Setaria” value was 9 and the “herbicidal action … Sida” value was 0.

For `CC1(C)CC(S(=O)(=O)C(F)(Cl)c2ccccc2F)=NO1` (racemic) [1.73], the “herbicidal action … Amaranthus” value was 10, the “herbicidal action … Digitaria” value was 10 and the “herbicidal action … Panicum” value was 10. The “herbicidal action … Setaria” value was 10 and the “herbicidal action … Sida” value was 8.

For `CC1(C)CC(S(=O)(=O)C(Br)c2ccccc2OC(F)F)=NO1` (racemic) [1.78], the “herbicidal action … Amaranthus” value was 10, the “herbicidal action … Digitaria” value was 10 and the “herbicidal action … Panicum” value was 10. For the same compound, the “herbicidal action … Setaria” value was 10 and the “herbicidal action … Sida” value was 2.

With `CC1(C)CC(S(=O)(=O)C(Cn2ccnc2)c2c(F)cccc2F)=NO1` (racemic) [Compound No. 1.87] the “herbicidal action … Amaranthus” value was 3, the “herbicidal action … Digitaria” value was 7 and the “herbicidal action … Panicum” value was 5. The “herbicidal action … Setaria” value was 7 and the “herbicidal action … Sida” value was 0.

With `CC(=O)OC(C)=C(c1c(C(F)(F)F)nn(C)c1OCC(F)(F)F)S(=O)(=O)C1=NOC(C)(C)C1` [2.32] the “herbicidal action … Amaranthus” value was 7, the “herbicidal action … Digitaria” value was 4 and the “herbicidal action … Panicum” value was 7. The “herbicidal action … Setaria” value was 4 and the “herbicidal action … Sida” value was 0.

With `CC1(C)CC(S(=O)(=O)C(Br)c2ccccc2)=NO1` (racemic) [1.81] the “herbicidal action … Amaranthus” value was 9, the “herbicidal action … Digitaria” value was 6 and the “herbicidal action … Panicum” value was 8. For the same compound, the “herbicidal action … Setaria” value was 5 and the “herbicidal action … Sida” value was 0.

In the case of `Cc1ccc(F)c(C(Cl)S(=O)(=O)C2=NOC(C)(C)C2)c1F` (stereo not shown) [1.145], the “herbicidal action … Amaranthus” value is reported as 10, the “herbicidal action … Digitaria” value is reported as 10 and the “herbicidal action … Panicum” value is reported as 10. For the same compound, the “herbicidal action … Setaria” value was 10 and the “herbicidal action … Sida” value was 7.

In the case of `CC1(C)CC(S(=O)(=O)C(Br)c2ccc(F)cc2F)=NO1` (stereo not shown) [1.150], the “herbicidal action … Amaranthus” value is reported as 6, the “herbicidal action … Digitaria” value is reported as 10 and the “herbicidal action … Panicum” value is reported as 10. For the same compound, the “herbicidal action … Setaria” value was 9 and the “herbicidal action … Sida” value was 0.

With `Cc1noc(C)c1C(Cl)(Cl)S(=O)(=O)C1=NOC(C)(C)C1` [Compound No. 3.04] the “herbicidal action … Amaranthus” value was 3, the “herbicidal action … Digitaria” value was 9 and the “herbicidal action … Panicum” value was 10. For the same compound, the “herbicidal action … Setaria” value was 9 and the “herbicidal action … Sida” value was 0.

With `CC(=O)C(c1c(C(F)(F)F)nn(C)c1OCC(F)(F)F)S(=O)(=O)C1=NOC(C)(C)C1` (stereo not shown) [2.08] the “herbicidal action … Amaranthus” value was 4, the “herbicidal action … Digitaria” value was 2 and the “herbicidal action … Panicum” value was 9. The “herbicidal action … Sida” value was 2.

For `COc1ccccc1C(Cl)S(=O)(=O)C1=NOC(C)(C)C1` (stereo not shown) [1.141], the “herbicidal action … Amaranthus” value was 5, the “herbicidal action … Digitaria” value was 9 and the “herbicidal action … Panicum” value was 9. For the same compound, the “herbicidal action … Setaria” value was 9 and the “herbicidal action … Sida” value was 0.

`Cn1nc(C(F)(F)F)c(C([S+]([O-])C2=NOC(C)(C)C2)C(F)(F)F)c1OCC(F)(F)F` (stereo not shown) [Compound No. 2.35, 5,5-dimethyl-3-{2,2,2-trifluoro-1-[1-methyl-5-(2,2,2-trifluoro-ethoxy)-3-trifluoromethyl-1H-pyrazol-4-yl]-ethanesulfinyl}-4,5-dihydro-isoxazole] was tested, and the “herbicidal action … Amaranthus” value was 10, the “herbicidal action … Digitaria” value was 10 and the “herbicidal action … Panicum” value was 9. The “herbicidal action … Setaria” value was 5 and the “herbicidal action … Sida” value was 0.

With `CC1(C)CC(S(=O)(=O)C(Br)c2cc(F)ccc2F)=NO1` (stereo not shown) [1.135] the “herbicidal action … Amaranthus” value was 7, the “herbicidal action … Digitaria” value was 10 and the “herbicidal action … Panicum” value was 10. For the same compound, the “herbicidal action … Setaria” value was 9 and the “herbicidal action … Sida” value was 0.

From patent US8680290B2, “Isoxazoline derivatives and their use as herbicides” (Syngenta Limited, priority 2004, dated 2014)
